From US20240279215A1 (Cytokinetics, Incorporated, priority 2022, published 2024)

What follows are compounds tested against human NAMPT (Homo sapiens (Human), UniProt P43490) (assay: NMN fluorescence biochemical assay (human recombinant NAMPT enzyme assay)).
Method in brief: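 NMN formed was detected by fluorescence (Ex/Em 355/460 nm) after acetophenone, KOH and formic acid derivatization. The cell-free reaction ran 60 min at ambient temperature with 6 nM human NAMPT, 150 μM nicotinamide, 20 μM PRPP, 2.5 mM ATP, pH 7.2 HEPES, and compound dose responses.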

human NAMPT, sequence (P43490 whole entry): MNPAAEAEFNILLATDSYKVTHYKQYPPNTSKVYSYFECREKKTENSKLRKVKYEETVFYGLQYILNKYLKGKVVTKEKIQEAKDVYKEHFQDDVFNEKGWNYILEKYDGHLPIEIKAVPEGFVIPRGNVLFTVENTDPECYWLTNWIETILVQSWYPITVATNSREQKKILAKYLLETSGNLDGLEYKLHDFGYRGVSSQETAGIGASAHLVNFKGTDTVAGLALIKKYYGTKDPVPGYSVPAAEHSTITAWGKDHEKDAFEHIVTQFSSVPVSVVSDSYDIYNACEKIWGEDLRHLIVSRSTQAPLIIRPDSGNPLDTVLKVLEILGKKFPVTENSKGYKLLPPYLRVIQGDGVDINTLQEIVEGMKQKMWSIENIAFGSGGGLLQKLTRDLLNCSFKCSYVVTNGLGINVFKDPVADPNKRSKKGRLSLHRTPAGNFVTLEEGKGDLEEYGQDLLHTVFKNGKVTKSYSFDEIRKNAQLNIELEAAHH

AC1.4 Human | EC50 | SMILES
3.18 µM | 10.9 µM | O=C(Nc1ccc(CNC(=O)c2ccccn2)cc1)OCc1ccc(Cl)cc1 [Compound 272, (4-chlorophenyl)methyl N-{4-[(pyridin-2-ylformamido)methyl]phenyl}carbamate]
3.21 µM | 14.4 µM | O=C(Cc1ccc(NC(=O)OCc2ccc(Cl)cc2)cc1)Nc1cncc(F)c1 [Compound 273, (4-chlorophenyl)methyl N-(4-{[(5-fluoropyridin-3-yl)carbamoyl]methyl}phenyl)carbamate]
3.32 µM | 6.15 µM | O=C(Nc1ccc(CC(=O)N2CCC(F)(F)CC2)cc1)OCc1ccc(Cl)cc1 [Compound 274, (4-chlorophenyl)methyl N-{4-[2-(4,4-difluoropiperidin-1-yl)-2-oxoethyl]phenyl}carbamate]
3.32 µM | 12.6 µM | Cc1ccc(C(=O)NCc2ccc(NC(=O)OCc3ccc(OC(F)F)cc3)cc2)cn1 [Compound 275, (4-(difluoro-13-methyl)phenyl)methyl (4-((6-methylnicotinamido)methyl)phenyl)carbamate]
3.32 µM | 18.3 µM | Cc1coc(C(=O)NCc2ccc(NC(=O)OCc3ccc(Cl)cc3)cc2)n1 [Compound 276, (4-chlorophenyl)methyl N-(4-{[(4-methyl-1,3-oxazol-2-yl)formamido]methyl}phenyl)carbamate]
3.36 µM | 39.9 µM | CN1CC(C(=O)NCc2ccc(NC(=O)OCc3ccc(Cl)cc3)cc2)CC1=O (stereo not drawn) [Compound 277, (4-chlorophenyl)methyl N-(4-{[(1-methyl-5-oxopyrrolidin-3-yl)formamido]methyl}phenyl)carbamate]
3.40 µM | 17.4 µM | CN1CC(=O)NC[C@@H]1c1ccc(NC(=O)OCc2ccc(F)cc2)cc1 [Compound 278, 4-fluorobenzyl (S)-(4-(1-methyl-5-oxopiperazin-2-yl)phenyl)carbamate]
3.43 µM | 29 µM | O=C(Nc1ccc(Cc2ncccn2)cc1)OCc1ccc(Cl)cc1 [Compound 279, 4-chlorobenzyl (4-(pyrimidin-2-ylmethyl)phenyl)carbamate]
3.51 µM | 14.5 µM | CO[C@H]1CC[C@@H](NC(=O)Cc2ccc(NC(=O)OCc3ccc(Cl)cc3)cc2)CC1 [Compound 280, (4-chlorophenyl)methyl N-[4-({[(1s,4s)-4-methoxycyclohexyl]carbamoyl}methyl)phenyl]carbamate]
3.56 µM | 46.9 µM | CC(=O)N1CCOC(c2ccc(NC(=O)OCc3ccc(Cl)cc3)cc2)C1 (stereo not drawn) [Compound 281, (4-chlorophenyl)methyl N-[4-(4-acetylmorpholin-2-yl)phenyl]carbamate]
3.61 µM | 47.9 µM | COC1CCN(C(=O)Cc2ccc(NC(=O)OCc3ccc(Cl)cc3)cc2)CC1 [Compound 283, (4-chlorophenyl)methyl N-{4-[2-(4-methoxypiperidin-1-yl)-2-oxoethyl]phenyl}carbamate]
3.72 µM | 19.2 µM | CN1CCN(Cc2ccc(NC(=O)OCc3ccc(Cl)cc3)cc2)CC1=O [Compound 284, (4-chlorophenyl)methyl N-{4-[(4-methyl-3-oxopiperazin-1-yl)methyl]phenyl}carbamate]
3.78 µM | 9.55 µM | O=C(Nc1ccc(CNC(=O)C2CCOCC2)cc1)OCc1ccc(Cl)cc1 [Compound 285, (4-chlorophenyl)methyl N-{4-[(oxan-4-ylformamido)methyl]phenyl}carbamate]
3.79 µM | 14.2 µM | O=C(Nc1ccc(CNC(=O)N2CCCCC2)cc1)OCc1ccc(Cl)cc1 [Compound 286, (4-chlorophenyl)methyl N-{4-[(piperidine-1-carbonylamino)methyl]phenyl}carbamate]
3.81 µM | 20.6 µM | O=C(Nc1ccc(CC(=O)N2CCCC[C@@H]2CO)cc1)OCc1ccc(Cl)cc1 [Compound 287, (4-chlorophenyl)methyl N-(4-{2-[(2R)-2-(hydroxymethyl)piperidin-1-yl]-2-oxoethyl}phenyl)carbamate]
3.88 µM | 3.45 µM | CC(C)(C)OC(=O)N1CC(OCc2ccc(NC(=O)OCc3ccc(Cl)cc3)cc2)C1 [Compound 288, tert-butyl 3-{[4-({[(4-chlorophenyl)methoxy]carbonyl}amino)phenyl]methoxy}azetidine-1-carboxylate]
3.95 µM | 50.3 µM | CCc1cc(C(=O)N(C)Cc2ccc(NC(=O)OCc3ccc(Cl)cc3)cc2)n(C)n1 [Compound 289, (4-chlorophenyl)methyl N-(4-{[1-(5-ethyl-2-methylpyrazol-3-yl)-N-methylformamido]methyl}phenyl)carbamate]
3.95 µM | 16.9 µM | C[C@H](NC(=O)c1ocnc1C1CC1)c1ccc(NC(=O)OCc2ccc(Cl)cc2)cc1 [Compound 290, (4-chlorophenyl)methyl N-{4-[(1S)-1-[(4-cyclopropyl-1,3-oxazol-5-yl)formamido]ethyl]phenyl}carbamate]

AC1.4 Human | EC50 | SMILES
3.97 µM | 38.2 µM | COc1ccc(COC(=O)Nc2ccc(COC3CCN(C4COC4)CC3)cc2)cc1 [Compound 291, 4-methoxybenzyl (4-(((1-(oxetan-3-yl)piperidin-4-yl)oxy)methyl)phenyl)carbamate]
4.12 µM | 20 µM | Cc1ccc(Cc2ccc(NC(=O)OCc3ccc(Cl)cc3)cc2)cn1 [Compound 292, 4-chlorobenzyl (4-((6-methylpyridin-3-yl)methyl)phenyl)carbamate]
4.16 µM | 18.4 µM | COCCN1CCC(Cc2ccc(NC(=O)OCc3cnco3)cc2)CC1 [Compound 293, oxazol-5-ylmethyl (4-((1-(2-methoxyethyl)piperidin-4-yl)methyl)phenyl)carbamate]
4.19 µM | 46.5 µM | Cc1cnc(C(=O)NCc2ccc(NC(=O)OCc3ccc(Cl)cc3)cc2)o1 [Compound 294, (4-chlorophenyl)methyl N-(4-{[(5-methyl-1,3-oxazol-2-yl)formamido]methyl}phenyl)carbamate]
4.57 µM | 28 µM | Cn1ccc(CC(=O)NCc2ccc(NC(=O)OCc3ccc(Cl)cc3)cc2)n1 [Compound 295, (4-chlorophenyl)methyl N-(4-{[2-(1-methylpyrazol-3-yl)acetamido]methyl}phenyl)carbamate]
4.62 µM | 14.3 µM | CC(O)(c1ccncc1)c1ccc(NC(=O)OCc2cnco2)cc1 (stereo not drawn) [Compound 296, oxazol-5-ylmethyl (4-(1-hydroxy-1-(pyridin-4-yl)ethyl)phenyl)carbamate]
4.65 µM | 19.8 µM | O=C(Cc1ncco1)NCc1ccc(NC(=O)OCc2ccc(Cl)cc2)cc1 [Compound 297, (4-chlorophenyl)methyl N-(4-{[2-(1,3-oxazol-2-yl)acetamido]methyl}phenyl)carbamate]
4.66 µM | 20.4 µM | CN(Cc1ccc(NC(=O)OCc2ccc(Cl)cc2)cc1)C(=O)c1ccc(C(F)F)nc1 [Compound 298, (4-chlorophenyl)methyl N-[4-({1-[6-(difluoromethyl)pyridin-3-yl]-N-methylformamido}methyl)phenyl]carbamate]
4.67 µM | 11.6 µM | O=C(Nc1ccc(Cc2ccncc2)cc1)OCc1cnsc1 [Compound 299, isothiazol-4-ylmethyl (4-(pyridin-4-ylmethyl)phenyl)carbamate]
4.81 µM | 26.4 µM | O=C(Cc1ccc(NC(=O)OCc2ccc(Cl)cc2)cc1)NCc1cnccn1 [Compound 300, (4-chlorophenyl)methyl N-(4-{[(pyrazin-2-ylmethyl)carbamoyl]methyl}phenyl)carbamate]
4.81 µM | 26.8 µM | CC(C)n1nccc1C(=O)NCc1ccc(NC(=O)OCc2ccc(Cl)cc2)cc1 [Compound 301, (4-chlorophenyl)methyl N-(4-{[(2-isopropylpyrazol-3-yl)formamido]methyl}phenyl)carbamate]
4.86 µM | 17.2 µM | CC(C)Cn1nccc1C(=O)NCc1ccc(NC(=O)OCc2ccc(Cl)cc2)cc1 [Compound 302, (4-chlorophenyl)methyl N-[4-({[2-(2-methylpropyl)pyrazol-3-yl]formamido}methyl)phenyl]carbamate]
4.87 µM | 19.4 µM | O=C(Nc1ccc(Cc2cnccn2)cc1)OCc1ccc(Cl)cc1 [Compound 303, 4-chlorobenzyl (4-(pyrazin-2-ylmethyl)phenyl)carbamate]
4.93 µM | 23.5 µM | CC(C)N1CC(=O)NC[C@@H]1c1ccc(NC(=O)OCc2ccc(Cl)cc2)cc1 [Compound 304, 4-chlorobenzyl (S)-(4-(1-isopropyl-5-oxopiperazin-2-yl)phenyl)carbamate]
4.95 µM | 22.9 µM | O=C(Nc1ccc(CNC(=O)c2ccc(F)cn2)cc1)OCc1ccc(Cl)cc1 [Compound 305, (4-chlorophenyl)methyl N-(4-{[(5-fluoropyridin-2-yl)formamido]methyl}phenyl)carbamate]
4.97 µM | 13.9 µM | N#Cc1ccc(COC(=O)Nc2ccc(Cc3ccncc3)cc2)cc1 [Compound 306, 4-cyanobenzyl (4-(pyridin-4-ylmethyl)phenyl)carbamate]
5.02 µM | 5.55 µM | O=C(Nc1ccc(Cc2ccccc2)cc1)OCc1ccc(Cl)cc1 [Compound 307]

SMILES | AC1.4 Human | EC50
O=C(Nc1ccc(CC(=O)N2CCN(CC(F)F)CC2)cc1)OCc1ccc(Cl)cc1 [Compound 282, (4-chlorophenyl)methyl N-(4-{2-[4-(2,2-difluoroethyl)piperazin-1-yl]-2-oxoethyl}phenyl)carbamate] | 3.57 µM | 19.1 µM
